Assay results published in US11207320B2, “Compositions and methods for cancer expressing PDE3A or SLFN12” (The Broad Institute, Inc., priority 2015, dated 2021).

Legend:
PDE3A(677-1141) = target: T1, PDE3A(677-1141) (Homo sapiens, UniProt Q14432); experiment: Differential scanning fluorimetry (DSF) binding; settings: 5 μM protein, 100 μM compound
T1 construct: purified PDE3A catalytic domain, PDE3A(677-1141)
Experimental: Binding buffer: 20 mM Hepes pH 7.4, 100 μM TCEP, 1 mM MgCl2, 150 mM NaCl.

PDE3A and SLFN12 = target: T2, PDE3A and SLFN12 (Homo sapiens, UniProt Q14432); experiment: Validation of DNMDP-induced PDE3A protein interactions using immunoprecipitation and immunoblotting; assay type: cell-based; settings: for PDE3A and SLFN12 complex formation: FIG. 20, affinity reagents, immunoblot; for complex formation of V5-tagged SIRT7 and SLFN12 with PDE3A: HeLa, 10 μM, 4 hours, coimmunoprecipitation (FIG. 19)
T2 construct: Endogenous PDE3A was immunoprecipitated; host or cells: HeLa
Experimental: FIG. 19 is an immunoblot showing that DNMDP induces interaction between PDE3A and SIRT7 and SLFN12 in HeLa cells. HeLa cells were transfected with indicated plasmids and treated with indicated compounds with a final concentration of 10 μM for four hours. Endogenous PDE3A was immunoprecipitated and immunoblotted for V5 to identify novel interaction with SIRT7 and SLFN12 (upper two panels). Immunoprecipitate input was immunoblotted for PDE3A and V5 (lower two panels). V5-SLFN12 was undetectable in whole cell lysate.
FIG. 20 is an immunoblot showing confirmation of mass spectrometric results herein using affinity reagents.
HeLa cells were transfected with ORF overexpression constructs expressing V5-tagged SIRT7, V5-tagged SLFN12, or V5-tagged GFP. ORF expression constructs were obtained from the TRC (clone IDs: TRCN0000468231, TRCN0000476272, ccsbBroad304_99997). At 72 hours post transfection, cells were treated with 10 μM DNMDP or trequinsin for 4 hours followed by lysis using the ModRipa lysis buffer and immunoprecipitation of PDE3A. For each condition, 2 mg total protein lysate was incubated with 1 μg of anti-PDE3A antibody at 4° C. overnight, after which 7.5 μl each of Protein A- and Protein G-Dynabeads (Life Technologies 10001D and 10003D) were added and incubated for another 1 hour. Beads were washed and bound proteins were eluted with 30 μl of LDS PAGE gel loading buffer. Input (˜60 μg total protein lysate) and IP products were resolved on 4-12% Tris-Glycine PAGE gels and immunoblotted with an anti-V5 antibody (Life Technologies R96205, 1:5000), the Bethyl anti-PDE3A antibody (1:1000), and secondary antibodies from LiCOR Biosciences (Cat.#926-32210 and 926068021, each at 1:10,000). Blots were washed and imaged using a LiCOR Odyssey infrared imager.

PDE3A = PDE3A (Homo sapiens, UniProt Q14432); experiment: Immunoprecipitation of PDE3A in HeLa cells with iTRAQ/MS proteomics; set-up: Immunoprecipitation of endogenous PDE3A in HeLa cells; endogenous in cells; host or cells: HeLa; settings: 10 μM, four hours
Source text: The dependence of 6-(4-(diethylamino)-3-nitrophenyl)-5-methyl-4,5-dihydropyridazin-3(2H)-one (DNMDP) cytotoxicity on phosphodiesterase 3A (PDE3A) protein abundance indicated a possible mechanism similar to that recently observed for lenalidomide, which acts by a neomorphic or hypermorphic mechanism by stabilizing an interaction between cereblon and IKAROS Family Zinc Finger 1 (IKZF1) and IKZF3 (Krönke et al., Science 343, 301-305, 2014; Lu et al., Science 343, 305-309, 2014). […] The protein complexes in which PDE3A resides were characterized under normal conditions, and it was examined how these complexes change when PDE3A is bound to DNMDP or the non-cytotoxic PDE3 inhibitor trequinsin. PDE3A and interacting proteins from Hela cells were immunoprecipitated in the presence of DNMDP and trequinsin followed by labeling with isobaric stable isotope tags for relative abundance and quantitation by mass spectrometry (iTRAQ/MS, FIG. 13A). […]
Desalted peptides were labeled with isobaric tags for relative and absolute quantification (iTRAQ)-reagents according to the manufacturer's instructions (AB Sciex, Foster City, Calif.). […]
Reconstituted peptides were separated on an online nanoflow EASY-NLC™ 1000 UHPLC system (Thermo Fisher Scientific) and analyzed on a benchtop Orbitrap Q EXACTIVE™ mass spectrometer (Thermo Fisher Scientific). […]

T2 sequence (Q14432 whole entry): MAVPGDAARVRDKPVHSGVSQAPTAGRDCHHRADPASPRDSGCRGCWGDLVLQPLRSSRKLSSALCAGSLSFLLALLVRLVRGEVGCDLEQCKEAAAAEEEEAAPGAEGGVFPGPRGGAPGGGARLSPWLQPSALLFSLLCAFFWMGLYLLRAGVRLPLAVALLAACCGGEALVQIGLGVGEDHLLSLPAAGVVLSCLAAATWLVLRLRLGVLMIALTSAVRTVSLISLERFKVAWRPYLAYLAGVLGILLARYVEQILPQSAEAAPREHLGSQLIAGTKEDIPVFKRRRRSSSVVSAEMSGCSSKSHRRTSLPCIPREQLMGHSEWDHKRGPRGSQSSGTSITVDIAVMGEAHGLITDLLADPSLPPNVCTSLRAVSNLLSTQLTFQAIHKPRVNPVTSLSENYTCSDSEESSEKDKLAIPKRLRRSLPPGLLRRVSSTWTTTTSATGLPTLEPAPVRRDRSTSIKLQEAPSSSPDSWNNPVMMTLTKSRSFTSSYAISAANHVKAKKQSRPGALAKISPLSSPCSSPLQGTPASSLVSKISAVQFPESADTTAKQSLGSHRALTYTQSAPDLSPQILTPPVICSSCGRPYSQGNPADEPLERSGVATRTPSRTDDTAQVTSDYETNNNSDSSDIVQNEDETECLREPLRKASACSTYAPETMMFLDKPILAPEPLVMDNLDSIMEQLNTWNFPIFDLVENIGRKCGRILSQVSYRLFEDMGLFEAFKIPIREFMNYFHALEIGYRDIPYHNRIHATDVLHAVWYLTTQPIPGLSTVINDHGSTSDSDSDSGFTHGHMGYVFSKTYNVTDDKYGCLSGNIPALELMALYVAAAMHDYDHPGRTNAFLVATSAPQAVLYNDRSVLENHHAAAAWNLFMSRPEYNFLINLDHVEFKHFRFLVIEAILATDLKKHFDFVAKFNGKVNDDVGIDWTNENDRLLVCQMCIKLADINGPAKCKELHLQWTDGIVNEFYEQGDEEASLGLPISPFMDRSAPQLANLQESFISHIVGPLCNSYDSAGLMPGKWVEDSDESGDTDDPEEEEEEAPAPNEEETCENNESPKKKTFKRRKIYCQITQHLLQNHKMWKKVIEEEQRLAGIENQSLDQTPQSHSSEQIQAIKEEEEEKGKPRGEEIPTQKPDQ
T2 sequence (Q8IYM2 whole entry partner): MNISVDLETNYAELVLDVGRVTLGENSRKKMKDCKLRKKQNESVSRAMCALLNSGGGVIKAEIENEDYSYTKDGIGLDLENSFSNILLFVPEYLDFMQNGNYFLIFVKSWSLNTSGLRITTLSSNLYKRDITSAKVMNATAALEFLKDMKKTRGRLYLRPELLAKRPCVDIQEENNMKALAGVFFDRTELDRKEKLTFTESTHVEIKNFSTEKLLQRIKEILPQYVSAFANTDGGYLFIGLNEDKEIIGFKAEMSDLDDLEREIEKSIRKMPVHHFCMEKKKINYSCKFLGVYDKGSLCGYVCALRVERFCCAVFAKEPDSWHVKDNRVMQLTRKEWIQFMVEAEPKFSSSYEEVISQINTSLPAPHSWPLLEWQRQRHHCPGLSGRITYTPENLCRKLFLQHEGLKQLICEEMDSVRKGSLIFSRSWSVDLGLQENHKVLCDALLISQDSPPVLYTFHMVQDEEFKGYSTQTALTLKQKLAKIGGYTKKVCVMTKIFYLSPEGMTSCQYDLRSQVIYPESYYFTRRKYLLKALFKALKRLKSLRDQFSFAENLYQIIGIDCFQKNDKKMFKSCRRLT
T1 sequence (Q14432 677-1141): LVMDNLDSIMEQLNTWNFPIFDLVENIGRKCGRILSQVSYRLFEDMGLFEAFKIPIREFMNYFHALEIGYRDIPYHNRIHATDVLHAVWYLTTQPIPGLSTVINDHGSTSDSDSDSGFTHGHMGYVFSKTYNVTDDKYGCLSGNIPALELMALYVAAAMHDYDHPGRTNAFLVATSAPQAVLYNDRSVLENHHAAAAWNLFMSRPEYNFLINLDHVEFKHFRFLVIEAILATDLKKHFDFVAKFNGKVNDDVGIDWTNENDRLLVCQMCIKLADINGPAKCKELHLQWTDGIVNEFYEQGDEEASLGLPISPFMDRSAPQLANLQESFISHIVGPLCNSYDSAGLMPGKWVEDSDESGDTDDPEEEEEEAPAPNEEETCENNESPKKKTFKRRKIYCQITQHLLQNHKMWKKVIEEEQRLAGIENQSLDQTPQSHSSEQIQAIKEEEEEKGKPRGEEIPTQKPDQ
Sequence of PDE3A (Q14432 whole entry): as the sequence (Q14432 whole entry) above

CCN(CC)c1ccc(C2=NNC(=O)CC2C)cc1[N+](=O)[O-] (stereo not shown) [DNMDP, 6-(4-(diethylamino)-3-nitrophenyl)-5-methyl-4,5-dihydropyridazin-3(2H)-one]
Tm (° C.) (PDE3A(677-1141)): 58.4 ± 0.0 °C | ΔTm at 100 µM (PDE3A(677-1141)): 6 °C | PDE3A and SLFN12 complex formation (PDE3A and SLFN12): induced | complex formation of V5-tagged SIRT7 and SLFN12 with PDE3A (PDE3A and SLFN12): enhanced | enrichment of SIRT7 and SLFN12 in PDE3A immunoprecipitates (PDE3A): specifically enriched

COc1cc2c(cc1OC)-c1c/c(=N\c3c(C)cc(C)cc3C)n(C)c(=O)n1CC2 [trequinsin, 9,10-dimethoxy-3-methyl-2-(2,4,6-trimethylphenyl)imino-6,7-dihydropyrimido[6,1-a]isoquinolin-4-one]
Tm (° C.) (PDE3A(677-1141)): 66.2 ± 0.0 °C | ΔTm at 100 µM (PDE3A(677-1141)): 14.2 °C | PDE3A and SLFN12 complex formation (PDE3A and SLFN12): not | complex formation of V5-tagged SIRT7 and SLFN12 with PDE3A (PDE3A and SLFN12): not | enrichment of SIRT7 and SLFN12 in PDE3A immunoprecipitates (PDE3A): not observed
